SMILES strings stand for the structures. Where two headings read alike, the source gives them in different places.

Common to all, as to assay type: cell-based
Experiment [1] has as its system UM 92.1 cell line. The experiment in a line: 72 hr CellTiter-Glo cell proliferation assay, 92.1. Conditions: for IC50: 92.1 cell line, 72 hr CTG, read-out: IC50 single agent activity. Here is the method: (§1) Next, luminescence was recorded using the plate reader.
The percent growth inhibition and excess inhibition were analysed using the Chalice software (CombinatoRx, Cambridge Mass.). […] All remaining points in the grids display results from a combination of the two inhibitors that correspond to the single agent concentrations denoted on the two axes. Data analysis of cell proliferation was performed using Chalice Analyser as described in (Lehar et al. 2009). Excess inhibition was calculated using the Loewe synergy model which measures the effect on growth relative to what would be expected if two drugs behave in a dose additive manner. Positive numbers represent areas of increasing synergy.

Experiment [2] has as its system Mel285 UM cell line. Briefly: 72 hr CellTiter-Glo cell proliferation assay, Mel285. The conditions noted are these: read-out: IC50 single agent activity. The procedure:
as §1
(In general: ATP-based viability assays read luminescence as a measure of living cells.)

Experiment [3] relates to Mel202 UM cell line. The experiment in a line: 72 hr CellTiter-Glo cell proliferation assay, Mel202. Conditions: read-out: IC50 single agent activity. The procedure:
as §1

Experiment [4] concerns OMM2.5 UM cell line. Briefly: 72 hr CellTiter-Glo cell proliferation assay, OMM2.5. The conditions noted are these: read-out: IC50 single agent activity. The procedure: as §1
For experiment [5], the system named is Mel270 UM cell line. Briefly: 72 hr CellTiter-Glo cell proliferation assay, Mel270. The conditions noted are these: read-out: IC50 single agent activity. Here is the method: as §1

On to `CC1(N)CCN(c2cccnc2NC(=O)c2nc(-c3ncccc3C(F)(F)F)cnc2N)CC1` [Compound D, 3-amino-N-(3-(4-amino-4-methylpiperidin-1-yl)pyridin-2-yl)-6-(3-(trifluoromethyl)pyridin-2-yl)pyrazine-2-carboxamide], for which the “efficacy as single agent compared with the other PKC inhibitor” value in experiment [1] (one UM cell line, single agent) is given as “more effective as a single agent”.
One may read the IC50 as the concentration that gives 50% inhibition. Regarding `COc1ncc(-c2nc3c(n2C(C)C)[C@H](c2ccc(Cl)cc2)N(c2cc(Cl)cn(C)c2=O)C3=O)c(OC)n1` [Compound B, (S)-5-(5-Chloro-1-methyl-2-oxo-1,2-dihydro-pyridin-3-yl)-6-(4-chloro-phenyl)-2-(2,4-dimethoxy-pyrimidin-5-yl)-1-isopropyl-5,6-dihydro-1H-pyrrolo[3,4-d]imidazol-4-one], the IC50 in experiment [2] (72 h) was determined as 167 nM; in experiment [3] (Mel202, 72 h) it was 60 nM; in experiment [4] (72 h), 249 nM; in experiment [1], 86 nM; in experiment [5] (72 h) it was 34 nM.
Take `COc1cc2c(cc1OC(C)C)[C@H](c1ccc(Cl)cc1)N(c1ccc(N(C)C[C@H]3CC[C@H](N4CCN(C)C(=O)C4)CC3)cc1)C(=O)C2` [Compound A, (S)-1-(4-Chloro-phenyl)-7-isopropoxy-6-methoxy-2-(4-{methyl-[4-(4-methyl-3-oxo-piperazin-1-yl)-trans-cyclohexylmethyl]-amino}-phenyl)-1,4-dihydro-2H-isoquinolin-3-one]: the IC50 stood at 1260 nM in experiment [2] (Mel285 cell line, 72 hr CTG); 401 nM in experiment [3] (Mel202 cell line, 72 hr CTG); 2570 nM in experiment [4] (OMM2.5 cell line, 72 hr CTG); 667 nM in experiment [1]; 362 nM in experiment [5] (Mel270 cell line, 72 hr CTG).

The record behind these values is US20200246331A1, “Pharmaceutical combinations and their use” (Novartis AG, priority 2015, published 2020).
